Laboratory results from patent US20240246937A1 (MERCK SHARP & DOHME LLC, priority 2021, published 2024).

Target: recombinant IL4I1 (Homo sapiens (Human), UniProt Q96RQ9)
Test: IL4I1 Enzymatic Assay (Amplex Red/HRP coupled fluorescence detection of H2O2)
Assay type: biochemical
Settings: 240 min; recombinant IL4I1, four-hour pre-incubation with compound
Procedure, shortened: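 Ten-point, 1:3 compound titrations were fitted by four-parameter sigmoidal regression to give EC50. Resorufin fluorescence (544/590 nm) from Amplex Red/HRP-coupled H2O2 detection was read 120 min after adding 1 mM each aromatic amino acid to 1 nM IL4I1, following a 4 h compound pre-incubation in pH 7.0 Hepes buffer.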

Sequence of recombinant IL4I1 (Q96RQ9 22-567): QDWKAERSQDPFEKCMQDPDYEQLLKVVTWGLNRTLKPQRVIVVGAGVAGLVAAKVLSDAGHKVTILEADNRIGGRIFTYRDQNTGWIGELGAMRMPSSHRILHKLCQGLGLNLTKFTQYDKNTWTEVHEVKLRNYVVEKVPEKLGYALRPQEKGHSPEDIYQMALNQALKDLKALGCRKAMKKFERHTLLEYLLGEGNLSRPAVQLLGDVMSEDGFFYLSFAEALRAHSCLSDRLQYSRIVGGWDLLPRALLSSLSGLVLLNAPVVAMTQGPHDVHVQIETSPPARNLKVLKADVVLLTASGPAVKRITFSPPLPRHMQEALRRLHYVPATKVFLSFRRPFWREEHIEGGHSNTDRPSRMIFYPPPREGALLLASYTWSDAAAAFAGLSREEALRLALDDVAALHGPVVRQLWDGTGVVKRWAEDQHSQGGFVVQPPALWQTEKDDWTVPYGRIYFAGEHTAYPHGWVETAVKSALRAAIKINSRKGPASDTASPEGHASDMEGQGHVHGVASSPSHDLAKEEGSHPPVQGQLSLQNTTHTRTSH

Row | EC50 | SMILES
1 | 29 nM | O=c1c(=O)n(C23CC(C2)C3)ccn1Cc1ccc(-c2cccnc2)nn1 [Example 85, 1-(bicyclo[1.1.1]pentan-1-yl)-4-((6-(pyridin-3-yl)pyridazin-3-yl)methyl)-1,4-dihydropyrazine-2,3-dione]
2 | 27 nM | O=c1c(=O)n(C23CC(C2)C3)ccn1Cc1ccc(-c2ccccn2)cn1 [Example 86, 1-([2,3′-bipyridin]-6′-ylmethyl)-4-(bicyclo[1.1.1]pentan-1-yl)-1,4-dihydropyrazine-2,3-dione]
3 | 87 nM | CC1(n2ccn(Cc3ccc(-c4ccccn4)nn3)c(=O)c2=O)CC1 [Example 87, 1-(1-methylcyclopropyl)-4-((6-(pyridin-2-yl)pyridazin-3-yl)methyl)-1,4-dihydropyrazine-2,3-dione]
4 | 69 nM | CC1(n2ccn(Cc3ccc(-c4ccccn4)cn3)c(=O)c2=O)CC1 [Example 88, 1-([2,3′-bipyridin]-6′-ylmethyl)-4-(1-methylcyclopropyl)-1,4-dihydropyrazine-2,3-dione]
5 | 32 nM | N#CC1(n2ccn(Cc3ccc(-c4cccnc4)nn3)c(=O)c2=O)CC1 [Example 89, 1-(2,3-dioxo-4-((6-(pyridin-3-yl)pyridazin-3-yl)methyl)-3,4-dihydropyrazin-1(2H)-yl)cyclopropane-1-carbonitrile]
6 | 63 nM | CC1(n2ccn(Cc3ccc(-c4cccnc4)nn3)c(=O)c2=O)CC1 [Example 90, 1-(1-methylcyclopropyl)-4-((6-(pyridin-3-yl)pyridazin-3-yl)methyl)-1,4-dihydropyrazine-2,3-dione]
7 | 162 nM | N#CC1(n2ccn(Cc3ccc(-c4ccccn4)nn3)c(=O)c2=O)CC1 [Example 91, 1-(2,3-dioxo-4-((6-(pyridin-2-yl)pyridazin-3-yl)methyl)-3,4-dihydropyrazin-1(2H)-yl)cyclopropane-1-carbonitrile]
8 | 155 nM | N#CC1(n2ccn(Cc3ccc(-c4ccccn4)cn3)c(=O)c2=O)CC1 [Example 92, 1-(4-([2,3′-bipyridin]-6′-ylmethyl)-2,3-dioxo-3,4-dihydropyrazin-1(2H)-yl)cyclopropane-1-carbonitrile]
9 | 31 nM | O=c1c(=O)n(C23CC(C2)C3)ccn1Cc1ccc(-c2ccccn2)nn1 [Example 93, 1-(bicyclo[1.1.1]pentan-1-yl)-4-((6-(pyridin-2-yl)pyridazin-3-yl)methyl)-1,4-dihydropyrazine-2,3-dione]
10 | 35 nM | CC1(n2ccn(Cc3ccc(-c4cncs4)nn3)c(=O)c2=O)CC1 [Example 94, 1-(1-methylcyclopropyl)-4-((6-(thiazol-5-yl)pyridazin-3-yl)methyl)-1,4-dihydropyrazine-2,3-dione]
11 | 16 nM | O=c1c(=O)n(C23CC(C2)C3)ccn1Cc1ccc(-c2cncs2)nn1 [Example 95, 1-(bicyclo[1.1.1]pentan-1-yl)-4-((6-(thiazol-5-yl)pyridazin-3-yl)methyl)-1,4-dihydropyrazine-2,3-dione]
12 | 14 nM | O=C1C(=O)N([C@H]2C[C@H](c3ccccc3)C2)CCN1Cc1ccc(-c2ccccc2)nn1 [Example 96A, trans-1-(3-phenylcyclobutyl)-4-((6-phenylpyridazin-3-yl)methyl)piperazine-2,3-dione]
13 | 8 nM | O=C1C(=O)N([C@H]2C[C@@H](c3ccccc3)C2)CCN1Cc1ccc(-c2ccccc2)nn1 [Example 96B, cis-1-(3-phenylcyclobutyl)-4-((6-phenylpyridazin-3-yl)methyl)piperazine-2,3-dione]
14 | 5 nM | O=C1C(=O)N(C2CCCC2)CCN1Cc1ccc(-c2ccccc2)nc1 [Example 97, 1-cyclopentyl-4-((6-phenylpyridin-3-yl)methyl)piperazine-2,3-dione]
15 | 12 nM | O=C1C(=O)N(C2CCCC2)CCN1Cc1ccc(-c2ccccc2)cn1 [Example 98, 1-cyclopentyl-4-((5-phenylpyridin-2-yl)methyl)piperazine-2,3-dione]
16 | 8 nM | O=C1C(=O)N(C2CCCC2)CCN1Cc1ccc(-c2ccccc2)cc1F [Example 100, 1-cyclopentyl-4-((3-fluoro-[1,1′-biphenyl]-4-yl)methyl)piperazine-2,3-dione]
17 | 8 nM | O=C1C(=O)N(C2CCCC2)CCN1Cc1ncc(-c2ccccc2)cc1F [Example 101, 1-cyclopentyl-4-((3-fluoro-5-phenylpyridin-2-yl)methyl)piperazine-2,3-dione]
18 | 14 nM | O=C1C(=O)N(C2CCCC2)CCN1Cc1cnc(-c2ccccc2)c(F)c1 [Example 102, 1-cyclopentyl-4-((5-fluoro-6-phenylpyridin-3-yl)methyl)piperazine-2,3-dione]
19 | 11 nM | O=C1C(=O)N(C2CCCC2)CCN1Cc1cnc(-c2ccccc2)nn1 [Example 103, 1-cyclopentyl-4-((3-phenyl-1,2,4-triazin-6-yl)methyl)piperazine-2,3-dione]
20 | 4 nM | O=C1C(=O)N(C2CCCC2)CCN1Cc1cc(-c2ccccc2)on1 [Example 104, 1-cyclopentyl-4-((5-phenylisoxazol-3-yl)methyl)piperazine-2,3-dione]
21 | 2 nM | O=C1C(=O)N(C2CCC2)CCN1Cc1cc(-c2ccccc2)on1 [Example 105, 1-cyclobutyl-4-((5-phenylisoxazol-3-yl)methyl)piperazine-2,3-dione]

Row | EC50 | SMILES
22 | 7 nM | O=C1C(=O)N(C2CCC2)CCN1Cc1ncc(-c2ccccc2)cc1F [Example 106, 1-cyclobutyl-4-((3-fluoro-5-phenylpyridin-2-yl)methyl)piperazine-2,3-dione]
23 | 13 nM | O=C1C(=O)N(C2CCC2)CCN1Cc1cnc(-c2ccccc2)nc1 [Example 107, 1-cyclobutyl-4-((2-phenylpyrimidin-5-yl)methyl)piperazine-2,3-dione]
24 | 20 nM | CC(c1cnc(-c2ccccc2)cn1)N1CCN(C2CCC2)C(=O)C1=O (centres unmarked) [Example 108, 1-cyclobutyl-4-(1-(5-phenylpyrazin-2-yl)ethyl)piperazine-2,3-dione]
25 | 24 nM | O=C1C(=O)N(C2CCC2)CCN1Cc1ccc(-n2ccnn2)nc1 [Example 109, 1-((6-(1H-1,2,3-triazol-1-yl)pyridin-3-yl)methyl)-4-cyclobutylpiperazine-2,3-dione]
26 | 27 nM | O=C1C(=O)N(C23CC(C2)C3)CCN1Cc1cnc(-c2ccccc2)nc1 [Example 110, 1-(bicyclo[1.1.1]pentan-1-yl)-4-((2-phenylpyrimidin-5-yl)methyl)piperazine-2,3-dione]
27 | 8 nM | O=c1c(=O)n(C23CC(C2)C3)ccn1Cc1cnc(-c2ccccc2)nc1 [Example 111, 1-(bicyclo[1.1.1]pentan-1-yl)-4-((2-phenylpyrimidin-5-yl)methyl)-1,4-dihydropyrazine-2,3-dione]
28 | 7 nM | O=C1C(=O)N(C23CC(C2)C3)CCN1Cc1cnc(-c2ccccc2)cn1 [Example 112, 1-(bicyclo[1.1.1]pentan-1-yl)-4-((5-phenylpyrazin-2-yl)methyl)piperazine-2,3-dione]
29 | 15 nM | O=C1C(=O)N(C2CCC2)CCN1Cc1ccc(-n2nccn2)nc1 [Example 113, 1-((6-(2H-1,2,3-triazol-2-yl)pyridin-3-yl)methyl)-4-cyclobutylpiperazine-2,3-dione]
30 | 7 nM | O=C1C(=O)N(C23CC(C2)C3)CCN1Cc1ccc(-c2ccccc2)cn1 [Example 114, 1-(bicyclo[1.1.1]pentan-1-yl)-4-((5-phenylpyridin-2-yl)methyl)piperazine-2,3-dione]
31 | 4 nM | O=c1c(=O)n(C23CC(C2)C3)ccn1Cc1ccc(-c2ccccc2)cn1 [Example 115, 1-(bicyclo[1.1.1]pentan-1-yl)-4-((5-phenylpyridin-2-yl)methyl)-1,4-dihydropyrazine-2,3-dione]
32 | 17 nM | O=C1C(=O)N(C23CC(C2)C3)CCN1Cc1ccc(-n2nccn2)nc1 [Example 116, 1-((6-(2H-1,2,3-triazol-2-yl)pyridin-3-yl)methyl)-4-(bicyclo[1.1.1]pentan-1-yl)piperazine-2,3-dione]
33 | 14 nM | O=C1C(=O)N(C23CC(C2)C3)CCN1Cc1ccc(-n2ccnn2)nc1 [Example 117, 1-((6-(1H-1,2,3-triazol-1-yl)pyridin-3-yl)methyl)-4-(bicyclo[1.1.1]pentan-1-yl)piperazine-2,3-dione]
34 | 7 nM | O=C1C(=O)N(C2CCC2)CCN1Cc1cnc(-c2ccccc2)cn1 [Example 118, 1-cyclobutyl-4-((5-phenylpyrazin-2-yl)methyl)piperazine-2,3-dione]
35 | 4 nM | O=C1C(=O)N(C2CCCC2)CCN1CCc1cc(-c2ccccc2)on1 [Example 119, 1-cyclopentyl-4-(2-(5-phenylisoxazol-3-yl)ethyl)piperazine-2,3-dione]
36 | 3 nM | O=c1c(=O)n(C23CC(C2)C3)ccn1Cc1nnc(-c2ccccc2)s1 [Example 120, 1-(bicyclo[1.1.1]pentan-1-yl)-4-((5-phenyl-1,3,4-thiadiazol-2-yl)methyl)-1,4-dihydropyrazine-2,3-dione]
37 | 7 nM | O=C1C(=O)N(C23CC(C2)C3)CCN1Cc1nnc(-c2ccccc2)s1 [Example 121, 1-(bicyclo[1.1.1]pentan-1-yl)-4-((5-phenyl-1,3,4-thiadiazol-2-yl)methyl)piperazine-2,3-dione]
38 | 6 nM | O=C1C(=O)N(C23CC(C2)C3)CCN1Cc1ccc(-c2ccccc2)nc1 [Example 122, 1-(bicyclo[1.1.1]pentan-1-yl)-4-((6-phenylpyridin-3-yl)methyl)piperazine-2,3-dione]
39 | 5 nM | O=C1C(=O)N(C2CCC2)CCN1Cc1cnc(-c2ccccc2)c(F)c1 [Example 123, 1-cyclobutyl-4-((5-fluoro-6-phenylpyridin-3-yl)methyl)piperazine-2,3-dione]
40 | 7 nM | O=c1c(=O)n(C2CCCC2)ccn1Cc1nnc(-c2ccccc2)s1 [Example 124, 1-cyclopentyl-4-((5-phenyl-1,3,4-thiadiazol-2-yl)methyl)-1,4-dihydropyrazine-2,3-dione]
41 | 3 nM | O=c1c(=O)n([C@H]2C[C@H]3C[C@H]3C2)ccn1Cc1cnc(-c2ccccc2)cn1 [Example 125]
